Experimental data: patent publication US10045983B2, “Heteroaryl pyridone and aza-pyrodine compounds” (Genentech, Inc., priority 2011, dated 2018)

Experiment: CD69 Whole Blood Assay (CD69 Hu Blood FACS)
Assay type: cell-based, human
Conditions: Lymphocyte; human whole blood, anti-IgM activated B lymphocytes, FACS; IC70; Table 2 (unit inferred); read-out: CD69 Hu Blood FACS (IC70)
How it was run: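 Compounds tested for blocking B-cell CD69 induction by flow cytometry in human whole blood, with activation via anti-human IgM goat F(ab′)2 crosslinking of surface IgM.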

Structure (SMILES) | IC70
Cn1cc(Nc2cc(-c3ccnc(N4CCn5c(cc6c5CC(C)(C)C6)C4=O)c3CO)cn(C)c2=O)nn1 [Example 293, 3-[3-(hydroxymethyl)-4-[1-methyl-5-[(1-methyltriazol-4-yl)amino]-6-oxo-3-pyridyl]-2-pyridyl]-7,7-dimethyl-1,2,6,8-tetrahydrocyclopenta[3,4]pyrrolo[3,5-b]pyrazin-4-one] | 69.1 nM
Cn1cc(-c2ccnc(N3CCn4c(cc5c4CC(C)(C)C5)C3=O)c2CO)cc(Nc2cc(C(C)(C)C)on2)c1=O [Example 294, 3-[4-[5-[(5-tert-butylisoxazol-3-yl)amino]-1-methyl-6-oxo-3-pyridyl]-3-(hydroxymethyl)-2-pyridyl]-7,7-dimethyl-1,2,6,8-tetrahydrocyclopenta[3,4]pyrrolo[3,5-b]pyrazin-4-one] | 276 nM
CCc1cc(Nc2cc(-c3ccnc(N4CCn5c(cc6c5CC(C)(C)C6)C4=O)c3CO)cn(C)c2=O)no1 [Example 295, 3-[4-[5-[(5-ethylisoxazol-3-yl)amino]-1-methyl-6-oxo-3-pyridyl]-3-(hydroxymethyl)-2-pyridyl]-7,7-dimethyl-1,2,6,8-tetrahydrocyclopenta[3,4]pyrrolo[3,5-b]pyrazin-4-one] | 134 nM
COCCN1CCn2nc(Nc3cc(-c4ccnc(N5CCn6c(cc7c6CC(C)(C)C7)C5=O)c4CO)cn(C)c3=O)cc2C1 [Example 296, 3-[3-(hydroxymethyl)-4-[5-[[5-(2-methoxyethyl)-6,7-dihydro-4H-pyrazolo[1,5-a]pyrazin-2-yl]amino]-1-methyl-6-oxo-3-pyridyl]-2-pyridyl]-7,7-dimethyl-1,2,6,8-tetrahydrocyclopenta[3,4]pyrrolo[3,5-b]pyrazin-4-one] | 19.3 nM
CN1CCn2nc(Nc3cc(-c4ccnc(N5CCn6c(cc7c6CC(C)(C)C7)C5=O)c4CO)nn(C)c3=O)cc2C1 [Example 297, 3-[3-(hydroxymethyl)-4-[1-methyl-5-[(5-methyl-6,7-dihydro-4H-pyrazolo[1,5-a]pyrazin-2-yl)amino]-6-oxo-pyridazin-3-yl]-2-pyridyl]-7,7-dimethyl-1,2,6,8-tetrahydrocyclopenta[3,4]pyrrolo[3,5-b]pyrazin-4-one] | 140 nM
Cn1cc(-c2ccnc(N3CCn4c(cc5c4CC(C)(C)C5)C3=O)c2CO)cc(Nc2cnc(C#N)cn2)c1=O [Example 298, 5-[[5-[2-(7,7-dimethyl-4-oxo-1,2,6,8-tetrahydrocyclopenta[3,4]pyrrolo[3,5-b]pyrazin-3-yl)-3-(hydroxymethyl)-4-pyridyl]-1-methyl-2-oxo-3-pyridyl]amino]pyrazine-2-carbonitrile] | 869 nM
Cn1cc(-c2ccnc(N3CCn4c(cc5c4CC(C)(C)C5)C3=O)c2CO)cc(Nc2cc(-c3ccccc3)on2)c1=O [Example 299, 3-[3-(hydroxymethyl)-4-[1-methyl-6-oxo-5-[(5-phenylisoxazol-3-yl)amino]-3-pyridyl]-2-pyridyl]-7,7-dimethyl-1,2,6,8-tetrahydrocyclopenta[3,4]pyrrolo[3,5-b]pyrazin-4-one] | 2100 nM
COC[C@@H](C)N1CCn2nc(Nc3cc(-c4ccnc(N5CCn6c(cc7c6CC(C)(C)C7)C5=O)c4CO)cn(C)c3=O)cc2C1 [Example 300, (R)-2-(3′-(hydroxymethyl)-5-((5-(1-methoxypropan-2-yl)-4,5,6,7-tetrahydropyrazolo[1,5-a]pyrazin-2-yl)amino)-1-methyl-6-oxo-1,6-dihydro-[3,4′-bipyridin]-2′-yl)-7,7-dimethyl-2,3,4,6,7,8-hexahydro-1H-cyclopenta[4,5]pyrrolo[1,2-a]pyrazin-1-one] | 24 nM
Cn1cc(-c2ccnc(N3CCn4c(cc5c4CC(C)(C)C5)C3=O)c2CO)cc(Nc2ccc(C(F)(F)F)nn2)c1=O [Example 301, 3-[3-(hydroxymethyl)-4-[1-methyl-6-oxo-5-[[6-(trifluoromethyl)pyridazin-3-yl]amino]-3-pyridyl]-2-pyridyl]-7,7-dimethyl-1,2,6,8-tetrahydrocyclopenta[3,4]pyrrolo[3,5-b]pyrazin-4-one] | 1300 nM
CN(Cc1cc(Nc2cc(-c3ccnc(N4CCn5c(cc6c5CC(C)(C)C6)C4=O)c3CO)cn(C)c2=O)nn1C)C1COC1 [Example 302, 3-[3-(hydroxymethyl)-4-[1-methyl-5-[[1-methyl-5-[[methyl(oxetan-3-yl)amino]methyl]pyrazol-3-yl]amino]-6-oxo-3-pyridyl]-2-pyridyl]-7,7-dimethyl-1,2,6,8-tetrahydrocyclopenta[3,4]pyrrolo[3,5-b]pyrazin-4-one] | 22.8 nM
COCCN1CCn2nc(Nc3cc(-c4ccnc(-n5ncc6c7c(sc6c5=O)CC(C)(C)C7)c4CO)cn(C)c3=O)cc2C1 [Example 304, 3-[3-(hydroxymethyl)-4-[5-[[5-(2-methoxyethyl)-6,7-dihydro-4H-pyrazolo[1,5-a]pyrazin-2-yl]amino]-1-methyl-6-oxo-3-pyridyl]-2-pyridyl]-7,7-dimethyl-6,8-dihydrocyclopenta[3,4]thieno[1,3-d]pyridazin-4-one] | 40 nM
COCCN1CCn2nc(Nc3cc(-c4ccnc(N5CCn6c(cc7c6CC(C)(C)C7)C5=O)c4CO)nn(C)c3=O)cc2C1 [Example 305, 3-[3-(hydroxymethyl)-4-[5-[[5-(2-methoxyethyl)-6,7-dihydro-4H-pyrazolo[1,5-a]pyrazin-2-yl]amino]-1-methyl-6-oxo-pyridazin-3-yl]-2-pyridyl]-7,7-dimethyl-1,2,6,8-tetrahydrocyclopenta[3,4]pyrrolo[3,5-b]pyrazin-4-one] | 83.2 nM
COc1ccc(Nc2cc(-c3ccnc(N4CCn5c(cc6c5CC(C)(C)C6)C4=O)c3CO)cn(C)c2=O)nn1 [Example 306, 3-[3-(hydroxymethyl)-4-[5-[(6-methoxypyridazin-3-yl)amino]-1-methyl-6-oxo-3-pyridyl]-2-pyridyl]-7,7-dimethyl-1,2,6,8-tetrahydrocyclopenta[3,4]pyrrolo[3,5-b]pyrazin-4-one] | 602 nM
COCCN1CCn2nc(Nc3cc(-c4ccnc(N5CCc6c(sc7c6CC(C)(C)C7)C5=O)c4CO)cn(C)c3=O)cc2C1 [Example 308, 3-[3-(hydroxymethyl)-4-[5-[[5-(2-methoxyethyl)-6,7-dihydro-4H-pyrazolo[1,5-a]pyrazin-2-yl]amino]-1-methyl-6-oxo-3-pyridyl]-2-pyridyl]-7,7-dimethyl-1,2,6,8-tetrahydrocyclopenta[3,4]thieno[1,3-c]pyridin-4-one] | 54.6 nM
COCCCN1CCn2nc(Nc3cc(-c4ccnc(N5CCn6c(cc7c6CC(C)(C)C7)C5=O)c4CO)cn(C)c3=O)cc2C1 [Example 309, 3-[3-(hydroxymethyl)-4-[5-[[5-(3-methoxypropyl)-6,7-dihydro-4H-pyrazolo[1,5-a]pyrazin-2-yl]amino]-1-methyl-6-oxo-3-pyridyl]-2-pyridyl]-7,7-dimethyl-1,2,6,8-tetrahydrocyclopenta[3,4]pyrrolo[3,5-b]pyrazin-4-one] | 39.8 nM
Cc1cc(Nc2cc(-c3ccnc(N4CCn5c(cc6c5CC(C)(C)C6)C4=O)c3CO)cn(C)c2=O)ns1 [Example 310, 3-[3-(hydroxymethyl)-4-[1-methyl-5-[(5-methylisothiazol-3-yl)amino]-6-oxo-3-pyridyl]-2-pyridyl]-7,7-dimethyl-1,2,6,8-tetrahydrocyclopenta[3,4]pyrrolo[3,5-b]pyrazin-4-one] | 119 nM
Cn1cc(-c2ccnc(N3CCn4c(cc5c4CC(C)(C)C5)C3=O)c2CO)cc(Nc2cc(C3CC3)on2)c1=O [Example 311, 3-[4-[5-[(5-cyclopropylisoxazol-3-yl)amino]-1-methyl-6-oxo-3-pyridyl]-3-(hydroxymethyl)-2-pyridyl]-7,7-dimethyl-1,2,6,8-tetrahydrocyclopenta[3,4]pyrrolo[3,5-b]pyrazin-4-one] | 158 nM
Cc1cc(Nc2cc(-c3ccnc(N4CCn5c(cc6c5CC(C)(C)C6)C4=O)c3CO)cn(C)c2=O)nn1C1COC1 [Example 312, 3-[3-(hydroxymethyl)-4-[1-methyl-5-[[5-methyl-1-(oxetan-3-yl)pyrazol-3-yl]amino]-6-oxo-3-pyridyl]-2-pyridyl]-7,7-dimethyl-1,2,6,8-tetrahydrocyclopenta[3,4]pyrrolo[3,5-b]pyrazin-4-one] | 5600 nM
CN1Cc2cc(Nc3cc(-c4ccnc(N5CCn6c(cc7c6CC(C)(C)C7)C5=O)c4CO)cn(C)c3=O)nn2CC1=O [Example 313, 3-[3-(hydroxymethyl)-4-[1-methyl-5-[(5-methyl-6-oxo-4,7-dihydropyrazolo[1,5-a]pyrazin-2-yl)amino]-6-oxo-3-pyridyl]-2-pyridyl]-7,7-dimethyl-1,2,6,8-tetrahydrocyclopenta[3,4]pyrrolo[3,5-b]pyrazin-4-one] | 19.1 nM
Cn1cc(-c2ccnc(N3CCn4c(cc5c4CC(C)(C)C5)C3=O)c2CO)cc(Nc2ccc(N3CC(O)C3)cn2)c1=O [Example 314, 3-[4-[5-[[5-(3-hydroxyazetidin-1-yl)-2-pyridyl]amino]-1-methyl-6-oxo-3-pyridyl]-3-(hydroxymethyl)-2-pyridyl]-7,7-dimethyl-1,2,6,8-tetrahydrocyclopenta[3,4]pyrrolo[3,5-b]pyrazin-4-one] | 44.6 nM
Cn1nc(Nc2cc(-c3ccnc(N4CCn5c(cc6c5CC(C)(C)C6)C4=O)c3CO)cn(C)c2=O)cc1C(=O)N1CCCC1 [Example 315, 3-[3-(hydroxymethyl)-4-[1-methyl-5-[[1-methyl-5-(pyrrolidine-1-carbonyl)pyrazol-3-yl]amino]-6-oxo-3-pyridyl]-2-pyridyl]-7,7-dimethyl-1,2,6,8-tetrahydrocyclopenta[3,4]pyrrolo[3,5-b]pyrazin-4-one] | 15 nM
COCc1cc(Nc2cc(-c3ccnc(N4CCn5c(cc6c5CC(C)(C)C6)C4=O)c3CO)cn(C)c2=O)nn1C [Example 316, 3-[3-(hydroxymethyl)-4-[5-[[5-(methoxymethyl)-1-methyl-pyrazol-3-yl]amino]-1-methyl-6-oxo-3-pyridyl]-2-pyridyl]-7,7-dimethyl-1,2,6,8-tetrahydrocyclopenta[3,4]pyrrolo[3,5-b]pyrazin-4-one] | 20.2 nM
